Experiments:
[1] = Gelation ability of polyol amphiphiles in water and organic solvents; format: physicochemical; set-up: key: G = gel; P = precipitate; S = soluble; I = insoluble; settings: solvent CHCl3
From the text: (§1) Examples of suitable solvents include water, salt water (such as a NaCl solution), different […] such as TRISZMA buffers, and alkaline and acidic solutions. In addition to water-based solutions, the compounds can gel various aromatic and non-aromatic organic solvents, such as benzene, toluene, hexane, and acetonitrile. All the gels obtained in Table 7 were thermally reversible. Above their gelation temperature, the gels dissolved in solvent, but could be returned to their original gel state upon cooling.

[2] = as above; format: physicochemical; set-up: key: G = stable gel at room temperature; P = precipitate; Sol = soluble
From the text: as §1

[3] = Dye-encapsulated nanofibers in absence of synovial fluid (PBS); format: physicochemical; settings: DiD-encapsulated fibers in PBS
From the text: In vitro. […] Fibers were isolated by repetitive centrifugation and washing steps.

[4] = DiD-encapsulated fibers, synovial fluid, 37° C.
Description: In vitro. […] Fibers were incubated with synovial fluid at 37° C. that was extracted from human arthritic joints (inflamed).

[5] = tested on: arthritis bearing mouse joints (ankles and knees); settings: direct injection into joints, sectioned after 8 days, fluorescence microscopy
From the text: In vivo: DiD encapsulated nanofiber gels (salicin-deconate nanofibers, prepared as above), were directly injected into the arthritis bearing mouse joints (ankles and knees) to examine the retention of nanofibers within the joints. After 8 days, ankles and knees were sectioned and imaged under fluorescence microscopy to examine the presence of nanofibers.
In vivo: DiD encapsulated nanofiber gels were directly injected into the arthritis bearing mouse joints (ankles and knees) to examine the retention of nanofibers within the joints. After 8 days, ankles and knees were sectioned and imaged under fluorescence microscopy to examine the presence of nanofibers.

| SMILES | Gelation ability [1] | Gelation ability ([2]; solvent 1,4-dioxane) | Gelation ability ([2]; solvent CCl4) | Gelation ability ([2]; solvent CH3CN) | Gelation ability ([2]; solvent DMSO) | Gelation ability ([2]; solvent NaCl (40 mM)) | Gelation ability ([2]; solvent TRIS (50 mM)) | Gelation ability ([2]; solvent acetone) | Gelation ability ([2]; solvent acidic (pH < 3)) | Gelation ability ([2]; solvent basic (pH > 12)) | Gelation ability ([2]; solvent benzene) | Gelation ability ([2]; solvent cyclohexane) | Gelation ability ([2]; solvent toluene) | Gelation ability ([2]; solvent water) | stability of nanofibers in absence of synovial fluid [3] | period of slow degradation of fibers by enzymes [4] [days] | presence of nanofibers in joints [5] |
| --- | --- | --- | --- | --- | --- | --- | --- | --- | --- | --- | --- | --- | --- | --- | --- | --- | --- |
| CCCCCCCCCCCC(=O)NC(CO)(CO)CO [polyol-12] | P | Sol | G | G | Sol | G | G | Sol | G | G | G | G | G | G |  |  |  |
| CCCCCCCCCC(=O)OC[C@H]1O[C@@H](Oc2ccccc2CO)[C@H](O)[C@@H](O)[C@@H]1O [Salicin-deconate] |  |  |  |  |  |  |  |  |  |  |  |  |  |  | stable (in PBS) for months | 15 | localized within the joints |
